Experimental data published in ChEMBL document CHEMBL1137119, “Design and synthesis of 3-(2-pyridyl)pyrazolo[1,5-a]pyrimidines as potent CRF1 receptor antagonists” (Bioorg Med Chem Lett, 2004).

Columns and labels:
[1] = target: T1, Corticotropin-releasing factor receptor 1 (Homo sapiens, UniProt P34998); assay: Inhibition of CRF-stimulated cAMP production in cells expressing CRF1 receptor
T1 sequence (P34998 whole entry): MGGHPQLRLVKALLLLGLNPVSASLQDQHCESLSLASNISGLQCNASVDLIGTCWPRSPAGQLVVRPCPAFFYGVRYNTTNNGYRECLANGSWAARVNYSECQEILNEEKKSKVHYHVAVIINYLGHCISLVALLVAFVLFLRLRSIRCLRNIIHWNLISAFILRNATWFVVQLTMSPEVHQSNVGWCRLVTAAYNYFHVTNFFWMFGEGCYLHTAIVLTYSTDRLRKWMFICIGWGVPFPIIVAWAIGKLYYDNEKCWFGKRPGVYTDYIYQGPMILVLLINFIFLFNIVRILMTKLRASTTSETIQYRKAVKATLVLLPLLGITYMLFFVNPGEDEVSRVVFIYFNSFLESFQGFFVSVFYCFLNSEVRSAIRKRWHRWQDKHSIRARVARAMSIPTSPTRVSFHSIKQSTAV

[2] = target: T1, Corticotropin-releasing factor receptor 1; assay: Binding affinity for recombinant human CRF1 receptor

IC50 [1] | Ki [2] | Compound
0.15 µM | 0.01 µM | CCCN(CCC)c1cc(C)nc2c(-c3ncc(N(C)C)cc3C)c(C)nn12
0.18 µM | 0.0091 µM | CCCN(CCC)c1cc(C)nc2c(-c3ncc([N+](=O)[O-])cc3C)c(C)nn12
 | 0.0066 µM | CCCN(CCC)c1cc(C)nc2c(-c3ncc(I)cc3C)c(C)nn12
 | 0.01 µM | CCCN(CCC)c1cc(C)nc2c(-c3ncc(OC)cc3C)c(C)nn12
 | 0.0032 µM | CCCN(CCOC)c1cc(C)nc2c(-c3ncc(Cl)cc3Cl)c(C)nn12
 | 0.04 µM | CCCN(CCC)c1cc(C)nc2c(-c3ncc(C)cc3N)c(C)nn12
 | 0.085 µM | CCCN(CCC)c1cc(C)nc2c(-c3ncc(N)cc3C)c(C)nn12
 | 0.019 µM | CCCN(CCC)c1cc(C)nc2c(-c3ncc(F)cc3C)c(C)nn12
 | 0.023 µM | CCCN(CCC)c1cc(C)nc2c(-c3ncc(C)cc3N(C)C)c(C)nn12
 | 0.0012 µM | CCCCN(CCC)c1cc(C)nc2c(-c3ncc(C(F)(F)F)cc3Cl)c(C)nn12
 | 0.0012 µM | CCCN(CCC)c1cc(C)nc2c(-c3ncc(C(F)(F)F)cc3Cl)c(C)nn12
 | 0.04 µM | CCCN(CCC)c1cc(C)nc2c(-c3ncc(NC)cc3C)c(C)nn12
 | 0.078 µM | COCCN(CCOC)c1cc(C)nc2c(-c3ncc(Cl)cc3Cl)c(C)nn12
 | 0.53 µM | CCCN(CCC)c1cc(C)nc2c(-c3ncc(O)cc3C)c(C)nn12
 | 0.014 µM | CCCN(CCC)c1cc(C)nc2c(-c3ncc(C)cc3[N+](=O)[O-])c(C)nn12
 | 0.11 µM | CCCN(CCC)c1cc(C)nc2c(-c3ncccc3C)c(C)nn12

IC50 [1] | Ki [2] | Compound
 | 0.0008 µM | CCCN(CC1CC1)c1cc(C)nc2c(-c3ncc(C(F)(F)F)cc3Cl)c(C)nn12
 | 0.025 µM | CCCN(CCC)c1cc(C)nc2c(-c3ncc(C)cc3OC)c(C)nn12
 | > 10 µM | CCCN(CCC)c1cc(C)nc2c(-c3ncc(C)cc3N=O)c(C)nn12
 | 0.0039 µM | CCCN(CC1CC1)c1cc(C)nc2c(-c3ncc(Cl)cc3Cl)c(C)nn12
0.049 µM | 0.0032 µM | CCCN(CCC)c1cc(C)nc2c(-c3ncc(Cl)cc3Cl)c(C)nn12
 | 0.0067 µM | CCCN(CCC)c1cc(C)nc2c(-c3ncc(Cl)cc3C)c(C)nn12
 | 0.0011 µM | CCCCN(CCCC)c1cc(C)nc2c(-c3ncc(C(F)(F)F)cc3Cl)c(C)nn12
 | 0.013 µM | CCCN(CCC)c1cc(C)nc2c(-c3ncc(C)cc3NC)c(C)nn12
 | 0.0017 µM | CCCN(Cc1ccccc1)c1cc(C)nc2c(-c3ncc(C(F)(F)F)cc3Cl)c(C)nn12
 | 0.0062 µM | CCCN(CCC)c1cc(C)nc2c(-c3ncc(C)cc3Cl)c(C)nn12
 | 0.088 µM | CCCN(CCC)c1cc(C)nc2c(-c3ccc(Cl)cn3)c(C)nn12
 | 0.017 µM | CCCN(CCC)c1cc(C)nc2c(-c3ncc(N4CCCCC4)cc3C)c(C)nn12
 | 0.013 µM | CCCN(CCC)c1cc(C)nc2c(-c3ncc(N(CC)CC)cc3C)c(C)nn12
 | 0.1 µM | CCCN(CCC)c1cc(C)nc2c(-c3ncc(N=O)cc3C)c(C)nn12
 | > 10 µM | CCCN(CCC)c1cc(C)nc2c(-c3ncc(C)cc3O)c(C)nn12
